# Where a name gives a salt, the structure may show the parent alone. ± gives the standard deviation of the averaged measurements.
# Tested on: SYO-1
# Test: relative viability vs DMSO control (72 h) (fraction); higher = more viable cells
# Outline: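 Sarcoma cell lines were seeded in 384-well plates at densities set to reach 80–90% confluence. After 24 h, 2.5 µl of serially diluted compound was added (source plates 10 mM to 0.0002 mM), and plates were held 72 h at 37 °C, 5% CO2, with 0.1% DMSO vehicle and a 5 µM positive control. Relative viability came from ATPLite readings as percent growth, averaged over up to triplicate wells. Data were rescaled so full viability equals 1 and none equals 0.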
Structure (SMILES),relative viability (0.00017 µM),relative viability (0.00051 µM),relative viability (0.00152 µM),relative viability (0.00457 µM),relative viability (0.01372 µM),relative viability (0.04115 µM),relative viability (0.1235 µM),relative viability (0.3704 µM),relative viability (1.111 µM),relative viability (3.333 µM),relative viability (10 µM)
C[C@@H]1COCCN1c1cc(-c2ccnn2C)c2ccnc(-c3ccn[nH]3)c2n1,0.9163 ± 0.0052,0.928 ± 0.028,0.911 ± 0.043,0.903 ± 0.06,0.799 ± 0.07,0.627 ± 0.044,0.415 ± 0.03,0.286 ± 0.018,0.199 ± 0.0027,0.116 ± 0.0028,0.0976 ± 0.0066
CCN1CCN(Cc2ccc(Nc3ncc(F)c(-c4cc(F)c5nc(C)n(C(C)C)c5c4)n3)nc2)CC1 [Abemaciclib],0.953 ± 0.047,0.936 ± 0.043,0.925 ± 0.029,0.905 ± 0.051,0.849 ± 0.059,0.775 ± 0.064,0.657 ± 0.051,0.519 ± 0.039,0.461 ± 0.015,0.353 ± 0.059,0.0228 ± 0.055
CCc1cc2c(cc1N1CCC(N3CCOCC3)CC1)C(C)(C)c1[nH]c3cc(C#N)ccc3c1C2=O [Alectinib],0.979 ± 0.024,0.983 ± 0.032,0.982 ± 0.058,0.975 ± 0.059,0.99 ± 0.072,0.98 ± 0.031,0.972 ± 0.081,0.986 ± 0.051,1 ± 0.05,0.984 ± 0.045,1.03 ± 0.034
Cc1nc(NC(=O)N2CCC[C@H]2C(N)=O)sc1-c1ccnc(C(C)(C)C(F)(F)F)c1 [Alpelisib],0.975 ± 0.071,0.944 ± 0.068,0.93 ± 0.049,0.919 ± 0.031,0.85 ± 0.099,0.805 ± 0.095,0.735 ± 0.1,0.68 ± 0.11,0.633 ± 0.063,0.6 ± 0.019,0.5521 ± 0.0025
Cn1cc(-c2cc3c(N4CCN(c5ncc([C@@](C)(N)c6ccc(F)cc6)cn5)CC4)ncnn3c2)cn1 [Avapritinib],0.92 ± 0.012,0.898 ± 0.031,0.882 ± 0.057,0.844 ± 0.087,0.807 ± 0.1,0.718 ± 0.054,0.629 ± 0.053,0.568 ± 0.03,0.534 ± 0.059,0.439 ± 0.039,0.319 ± 0.023
CC(C)NC(=O)C1CCC(n2c(NC(=O)c3ccc(F)cc3)nc3ccc(CN4CCC(C(C)(C)O)CC4)cc32)CC1 (stereo not drawn) [Belizatinib],0.993 ± 0.062,0.983 ± 0.019,0.983 ± 0.055,1 ± 0.069,0.96 ± 0.03,0.967 ± 0.044,0.902 ± 0.052,0.798 ± 0.046,0.639 ± 0.046,0.336 ± 0.018,0.155 ± 0.03
Cn1cnc2c(F)c(Nc3ccc(Br)cc3F)c(C(=O)NOCCO)cc21 [Binimetinib],1.04 ± 0.027,1.05 ± 0.02,1.01 ± 0.064,1.01 ± 0.038,0.983 ± 0.024,0.96 ± 0.042,0.936 ± 0.038,0.933 ± 0.019,0.93 ± 0.069,0.889 ± 0.042,0.86 ± 0.059
Nc1cc(C(F)(F)F)c(-c2cc(N3CCOCC3)nc(N3CCOCC3)n2)cn1 [Buparlisib],0.933 ± 0.025,0.939 ± 0.011,0.935 ± 0.028,0.931 ± 0.022,0.894 ± 0.043,0.878 ± 0.066,0.81 ± 0.075,0.739 ± 0.052,0.456 ± 0.0064,0.159 ± 0.0096,0.136 ± 0.005
CNC(=O)c1ccc(-c2cnc3ncc(Cc4ccc5ncccc5c4)n3n2)cc1F [Capmatinib],0.956 ± 0.039,0.962 ± 0.044,0.966 ± 0.028,0.968 ± 0.015,0.97 ± 0.03,0.961 ± 0.042,0.97 ± 0.033,0.967 ± 0.026,0.994 ± 0.023,1.03 ± 0.03,1.01 ± 0.067
COc1cc2c(Oc3ccc4[nH]c(C)cc4c3F)ncnc2cc1OCCCN1CCCC1 [Cediranib],0.965 ± 0.02,0.962 ± 0.039,0.967 ± 0.04,0.946 ± 0.043,0.91 ± 0.074,0.723 ± 0.036,0.5301 ± 0.0011,0.471 ± 0.019,0.453 ± 0.019,0.483 ± 0.012,0.482 ± 0.027
COc1c(OCCCN2CCOCC2)ccc2c1N=C(NC(=O)c1cnc(N)nc1)N1CCN=C21 [Copanlisib],1 ± 0.011,0.945 ± 0.023,0.911 ± 0.051,0.79 ± 0.06,0.754 ± 0.041,0.693 ± 0.02,0.651 ± 0.052,0.52 ± 0.02,0.374 ± 0.012,0.171 ± 0.0084,0.0829 ± 0.006
CN1CCN(c2ccc3nc(-c4c(N)c5c(F)cccc5[nH]c4=O)[nH]c3c2)CC1 [Dovitinib],1.04 ± 0.049,1.038 ± 0.0075,0.992 ± 0.037,0.998 ± 0.03,0.974 ± 0.014,0.927 ± 0.035,0.833 ± 0.0092,0.556 ± 0.012,0.388 ± 0.025,0.17 ± 0.023,-0.0198 ± 0.0062
COc1cccc2c1C(=O)c1c(O)c3c(c(O)c1C2=O)C[C@@](O)(C(=O)CO)C[C@@H]3O[C@H]1C[C@H](N)[C@H](O)[C@H](C)O1 [Doxorubicin Hydrochloride],0.967 ± 0.064,0.938 ± 0.048,0.899 ± 0.054,0.818 ± 0.06,0.549 ± 0.038,0.29 ± 0.025,0.175 ± 0.035,0.127 ± 0.015,0.0941 ± 0.01,0.0937 ± 0.025,0.0765 ± 0.011
Cc1cnc(Nc2ccc(OCCN3CCCC3)cc2)nc1Nc1cccc(S(=O)(=O)NC(C)(C)C)c1 [Fedratinib],0.982 ± 0.04,0.943 ± 0.078,0.941 ± 0.09,0.933 ± 0.037,0.898 ± 0.053,0.843 ± 0.027,0.748 ± 0.066,0.496 ± 0.052,0.132 ± 0.0092,-0.0159 ± 0.0034,-0.0172 ± 0.0037
C=CC(=O)N1CCC[C@@H](n2nc(-c3ccc(Oc4ccccc4)cc3)c3c(N)ncnc32)C1 [Ibrutinib],0.992 ± 0.034,0.959 ± 0.047,0.923 ± 0.036,0.933 ± 0.042,0.923 ± 0.046,0.892 ± 0.045,0.868 ± 0.041,0.861 ± 0.026,0.759 ± 0.055,0.557 ± 0.027,0.39 ± 0.02
CC[C@H](Nc1ncnc2[nH]cnc12)c1nc2cccc(F)c2c(=O)n1-c1ccccc1 [Idelalisib],1.01 ± 0.062,0.979 ± 0.029,1 ± 0.054,0.968 ± 0.068,0.972 ± 0.069,0.942 ± 0.028,0.941 ± 0.032,0.931 ± 0.068,0.911 ± 0.045,0.866 ± 0.067,0.799 ± 0.079
O=C(Cc1ccc(-c2ccc(OCCN3CCOCC3)cc2)cn1)NCc1ccccc1 [KX2-391],1 ± 0.039,0.973 ± 0.038,0.958 ± 0.017,0.952 ± 0.042,0.917 ± 0.034,0.673 ± 0.027,0.295 ± 0.013,0.309 ± 0.011,0.324 ± 0.015,0.324 ± 0.011,0.357 ± 0.011
O=C(Nc1cnn2ccc(N3CCC[C@@H]3c3cc(F)ccc3F)nc12)N1CC[C@H](O)C1 [Larotrectinib],1.034 ± 0.0067,1.02 ± 0.021,0.979 ± 0.016,0.973 ± 0.047,0.946 ± 0.06,0.948 ± 0.063,0.926 ± 0.075,0.937 ± 0.043,0.885 ± 0.058,0.903 ± 0.062,0.875 ± 0.055

# Reference: the supplement of paper PMC10883282
